Reference: patent US7582628B2, “Pyrrolo[3,4-c]pyrazole derivatives active as kinase inhibitors, process for their preparation and pharmaceutical compositions comprising them” (Pfizer Italia S.r.l., priority 2003, dated 2009)

Tests used:
Aurora-2 = molecular target: T1, Aurora-2 (Homo sapiens, UniProt O14965); experiment: Inhibition assay of Aurora-2 activity (SPA); format: biochemical; conditions: 10 μM ATP, 60 minutes at room temperature
T1 sequence (O14965 1-403): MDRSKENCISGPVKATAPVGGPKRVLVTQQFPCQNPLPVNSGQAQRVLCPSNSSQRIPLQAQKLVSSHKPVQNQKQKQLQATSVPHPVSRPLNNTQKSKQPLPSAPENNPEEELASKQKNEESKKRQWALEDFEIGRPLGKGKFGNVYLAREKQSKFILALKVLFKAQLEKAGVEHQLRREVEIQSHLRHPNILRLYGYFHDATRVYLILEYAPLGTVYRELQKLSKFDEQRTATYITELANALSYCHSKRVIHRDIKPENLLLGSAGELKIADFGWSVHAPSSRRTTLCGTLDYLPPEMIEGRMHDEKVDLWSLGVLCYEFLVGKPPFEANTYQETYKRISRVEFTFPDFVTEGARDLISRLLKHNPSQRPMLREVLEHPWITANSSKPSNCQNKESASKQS
Protocol: The inhibiting activity and the potency of selected compounds is determined through a method of assay based on the use of the SPA technology (Amersham Pharmacia Biotech). The assay consists of the transfer of radioactivity labelled phosphate moiety by the kinase to a biotinylated substrate. The resulting 33P-labelled biotinylated product is allowed to bind to streptavidin-coated SPA beads (biotin capacity 130 pmol/mg), and light emitted was measured in a scintillation counter.
Inhibition Assay of Aurora-2 Activity
Kinase reaction: 8 μM biotinylated peptide (4 repeats of LRRWSLG), 10 μM ATP (0.5 uCi P^33γ-ATP), 7.5 ng Aurora 2, inhibitor in a final volume of 30 μl buffer (HEPES 50 mM pH 7.0, MgCl2 10 mM, 1 mM DTT, 0.2 mg/ml BSA, 3 μM orthovanadate) were added to each well of a 96 U bottom well plate. After 60 minutes at room temperature incubation, reaction was stopped and biotinylated peptide captured by adding 100 μl of bead suspension.
Stratification: 100 μl of CsCl2 5 M were added to each well and let stand 4 hour before radioactivity was counted in the Top-Count instrument.
IC50 determination: inhibitors were tested at different concentrations ranging from 0.0015 to 10 μM. Experimental data were analyzed by the computer program GraphPad Prizm using the four parameter logistic equation: y=bottom+(top−bottom)/(1+10^((log IC50−x)*slope)) where x is the logarithm of the inhibitor concentration, y is the response; y starts at bottom and goes to top with a sigmoid shape.

HCT-116 [1] = experiment: In vitro cell cycle analysis; format: cell-based, human; conditions: HCT-116, 200 nM, treated for 24 hours
Protocol: In Vitro Cell Cycle Analysis
The human colon cancer cell line HCT-116 was seeded at 5000 cells/cm2 in 24 wells plate (Costar) and cultured as mentioned above. Cells in their exponential phase of growth were treated for 24 hours with different concentrations of compound. Also, culture medium supernatant was collected to avoid loss of detached apoptotic or mitotic cells. Thereafter, cells were washed using PBS and detached by 0.05% (w/v) trypsin, 0.02% (w/v) EDTA (Gibco). Trypsin activity was stopped using culture medium. Adherent and non-adherent cell fractions were pooled and centrifuged at 2000 rpm for 10 minutes. Cells were re-suspended in PBS and counted using a Multisizer 3 cell counter (Beckman Coulter). For fixation, ethanol was added (70%, v/v) and cells were kept at −20° C. overnight.
One million fixed cells were centrifuged at 2000 rpm for 5 minutes and washed with PBS and subsequently stained for 1 hour at room temperature in the dark by adding 200 µl: 25 µg/ml propidium iodide (Sigma) and 15 ug/ml RNAse A (Sigma), 0.001% (v/v) Nonidet P40 (Sigma) in sodium citrate (0.1% w/v, pH 7.5). Samples were analyzed by flow cytometry at 488 nm excitation (FACSCalibur, Beckton Dickinson) using Cell Quest 3.0 software (Beckton Dickinson). Typically 10000 events (activating doubles discriminate module DDM and gating only single cells) were collected and cell cycle profiles were recorded using CellQuest (Verity Software). Cell Cycle distribution of the population was calculated using a modified model in Modfit 3.1 software (Verity Software) and expressed in % G0/G1, S, G2/M and polyploidy.

HCT-116 [2] = experiment: In vitro cell proliferation assay; format: cell-based; conditions: Homo sapiens; HCT-116, 72 hours of treatment; read-out: Cell Antiproliferation IC50
Protocol: In Vitro Cell Proliferation Assay
The human colon cancer cell line HCT-116 was seeded at 5000 cells/cm2 in 24 wells plate (Costar) using F12 medium (Gibco) supplemented with 10% FCS (EuroClone, Italy) 2 mM L-glutamine and 1% penicillin/streptomycin and maintained at 37° C., 5% CO2 and 96% relative humidity. The following day, plates were treated in duplicates with 5 ul of an appropriate dilution of compounds starting from a 10 mM stock in DMSO. Two untreated control wells were included in each plate. After 72 hours of treatment, medium was withdrawn and cells detached from each well using 0.5 ml of 0.05% (w/v) Trypsin, 0.02% (w/v) EDTA (Gibco). Samples were diluted with 9.5 ml of Isoton (Coulter) and counted using a Multisizer 3 cell counter (Beckman Coulter). Data were evaluated as percent of the control wells: % of CTR=(Treated−Blank)/(Control−Blank).
IC50 values were calculated by LSW/Data Analysis using Microsoft Excel sigmoidal curve fitting.

Row | Structure (SMILES) | IC50 (Aurora-2) [nM] | Cell Cycle block (% G2/M + polyploidy at 200 nM) (HCT-116 [1]) [%] | IC50 (HCT-116 [2]) [nM]
1 | CO[C@@H](C(=O)N1Cc2[nH]nc(NC(=O)c3ccc(N4CCCCC4)cc3)c2C1)c1ccccc1 [Compound (6), N-{5-[(2R)-2-methoxy-2-phenylethanoyl]-1,4,5,6-tetrahydropyrrolo[3,4-c]pyrazol-3-yl}-4-piperidin-1-ylbenzamide] | 37 | 90 | 30
2 | C[C@@H](C(=O)N1Cc2[nH]nc(NC(=O)c3ccc(N4CCN(C)CC4)cc3)c2C1)c1ccccc1 [Compound (11), N-{5-[(2R)-2-methyl-2-phenylethanoyl]-1,4,5,6-tetrahydropyrrolo[3,4-c]pyrazol-3-yl}-4-(4-methylpiperazin-1-yl)benzamide] | 63 | 90 | 17
3 | CO[C@@H](C(=O)N1Cc2[nH]nc(NC(=O)c3ccc(N4CCN(C)CC4)cc3)c2C1)c1ccccc1 [Compound (1), N-{5-[(2R)-2-methoxy-2-phenylethanoyl]-1,4,5,6-tetrahydropyrrolo[3,4-c]pyrazol-3-yl}-4-(4-methylpiperazin-1-yl)benzamide] | – | 90 | 31
4 | CO[C@@H](C(=O)N1Cc2[nH]nc(NC(=O)c3ccc(N4CCN(C)C(C)C4)cc3)c2C1)c1ccccc1 (stereo partly drawn) [Compound (5), 4-(3,4-dimethylpiperazin-1-yl)-N-{5-[(2R)-2-methoxy-2-phenylethanoyl]-1,4,5,6-tetrahydropyrrolo[3,4-c]pyrazol-3-yl}benzamide] | 18 | 90 | 50
5 | CN1CCN(c2ccc(C(=O)Nc3[nH]nc4c3CN(C(=O)Cc3ccccc3)C4)cc2)CC1 [Reference compound, N-{5-phenylacetyl-4,6-dihydropyrrolo[3,4-c]pyrazol-3-yl}-4-(4-methylpiperazino)benzamide, reference compound] | 140 | 33 | 220
